# Molecular target: Carbonic anhydrase 2 (Homo sapiens, UniProt P00918)
# Assay: Kinetic constant for binding human carbonic anhydrase II ([…])
# Conditions: read-out: kon (M-1-s-1)
structure (smiles),measurement,value
NS(=O)(=O)c1ccc(C(=O)NCC(=O)O)cc1 [(4-Sulfamoyl-benzoylamino)-acetic acid],kon,3.61e+07 M⁻¹ s⁻¹

# Source: BindingDB's records for doi:10.1016/0960-894X(96)00069-8 (1996)
